From ChEMBL document CHEMBL4616634, “4β-Hydroxywithanolide E from Goldenberry (Whole Fruits of Physalis peruviana L.) as a Promising Agent against Chronic Obstructive Pulmonary Disease” (J Nat Prod, 2020)
The source made the active and inactive calls. The rule behind the calls is not given here.

Assays:
[1] = biological target: T1, Nuclear factor erythroid 2-related factor 2 (Homo sapiens) (UniProt Q16236); test: Activation of Nrf2 in human BEAS2B cells assessed as increase in Nrf2 mRNA expression at 0.5 to 2 uM incubated for 24 hrs by qRT-PCR analysis; assay type: cell-based
T1 sequence (whole entry): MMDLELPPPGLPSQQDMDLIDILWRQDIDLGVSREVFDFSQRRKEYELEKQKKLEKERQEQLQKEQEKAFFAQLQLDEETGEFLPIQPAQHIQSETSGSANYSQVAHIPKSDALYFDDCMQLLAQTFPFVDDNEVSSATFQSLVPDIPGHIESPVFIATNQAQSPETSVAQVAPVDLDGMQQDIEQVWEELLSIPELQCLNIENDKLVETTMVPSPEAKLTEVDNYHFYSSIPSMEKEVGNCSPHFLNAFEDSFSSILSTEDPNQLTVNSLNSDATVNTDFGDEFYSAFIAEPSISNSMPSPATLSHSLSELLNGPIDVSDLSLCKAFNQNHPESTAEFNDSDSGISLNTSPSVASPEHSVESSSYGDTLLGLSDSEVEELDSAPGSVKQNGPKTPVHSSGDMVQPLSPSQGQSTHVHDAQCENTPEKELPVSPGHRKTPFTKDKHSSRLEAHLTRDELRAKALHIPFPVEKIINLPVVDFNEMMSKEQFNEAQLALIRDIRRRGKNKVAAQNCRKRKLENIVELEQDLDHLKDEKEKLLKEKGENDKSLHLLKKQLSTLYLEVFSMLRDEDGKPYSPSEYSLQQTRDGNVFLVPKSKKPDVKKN

[2] = biological target: T1, Nuclear factor erythroid 2-related factor 2 (Homo sapiens); test: Activation of Nrf2 in human BEAS2B cells assessed as increase in NQO1 mRNA expression at 0.5 to 2 uM incubated for 24 hrs by qRT-PCR analysis; assay type: cell-based
[3] = system: Mus musculus; test: Antiinflammatory activity in C57BL/6 mouse model of CS-induced pulmonary injury assessed as reduction in IL-1beta protein expression in lungs at 2 to 4 mg/kg, ip for 5 days by ELISA; assay type: functional, organism-based
[4] = biological target: T1, Nuclear factor erythroid 2-related factor 2 (Homo sapiens); test: Activation of Nrf2 in human BEAS2B cells assessed as increase in GCLM mRNA expression at 0.5 to 2 uM incubated for 24 hrs by qRT-PCR analysis; assay type: cell-based
[5] = biological target: T1, Nuclear factor erythroid 2-related factor 2 (Homo sapiens); test: Activation of Nrf2 in human BEAS2B cells harboring wild type Keap1 assessed as increase in Nrf2 protein expression at 2 uM after12 hrs in presence of Keap1-siRNA by immunoblot analysis; assay type: cell-based
[6] = system: RAW264.7; test: Cytotoxicity against mouse RAW264.7 cells assessed as reduction in cell viability < 6.25 uM after 24 hrs by MTT assay; assay type: cell-based; settings: raw264.7, 24 h
[7] = system: RAW264.7; test: Inhibition of LPS-induced IL-1beta mRNA expression in mouse RAW264.7 cells at 0.5 to 4 uM preincubated for 1 hr followed by LPS-stimulation and measured after 6 hrs by qRT-PCR analysis; assay type: functional, cell-based
[8] = biological target: T1, Nuclear factor erythroid 2-related factor 2 (Homo sapiens); test: Activation of Nrf2 in human BEAS2B cells assessed as increase in NQO1 protein expression incubated for 12 hrs by immunoblot analysis; assay type: cell-based
[9] = system: Mus musculus; test: Antiinflammatory activity in C57BL/6 mouse model of CS-induced pulmonary injury assessed as reduction in goblet cell hyperplasia in perivascular areas in lungs at 2 to 4 mg/kg, ip for 5 days by hematoxylin and eosin staining based fluorescence microscopic analysis; assay type: functional, organism-based
[10] = biological target: T1, Nuclear factor erythroid 2-related factor 2 (Homo sapiens); test: Activation of Nrf2 in human BEAS2B cells assessed as increase in Nrf2 translocation in nucleus at 1 uM incubated for 6 hrs by DAPI staining based fluorescence microscopic analysis; assay type: cell-based
[11] = system: Mus musculus; test: Antioxidant Activity in C57BL/6 mouse model of CS-induced pulmonary injury assessed as decrease in MDA level in serum at 2 to 4 mg/kg, ip for 5 days; assay type: functional, organism-based
[12] = system: RAW264.7; test: Inhibition of LPS-induced MMP-9 mRNA expression in mouse RAW264.7 cells at 0.5 to 4 uM preincubated for 1 hr followed by LPS-stimulation and measured after 6 hrs by qRT-PCR analysis; assay type: functional, cell-based
[13] = system: RAW264.7; test: Inhibition of LPS-induced COX2 mRNA expression in mouse RAW264.7 cells at 0.5 to 4 uM preincubated for 1 hr followed by LPS-stimulation and measured after 6 hrs by qRT-PCR analysis; assay type: functional, cell-based
[14] = system: Mus musculus; test: Antiinflammatory activity in C57BL/6 mouse model of CS-induced pulmonary injury assessed as reduction in distinct infiltration of leukocytes in lungs at 2 to 4 mg/kg, ip for 5 days by hematoxylin and eosin staining based fluorescence microscopic analysis; assay type: functional, organism-based
[15] = system: Mus musculus; test: Antiinflammatory activity in C57BL/6 mouse model of CS-induced pulmonary injury assessed as reduction in IL-6 protein expression in lungs at 2 to 4 mg/kg, ip for 5 days by ELISA; assay type: functional, organism-based
[16] = system: RAW264.7; test: Inhibition of LPS-induced IL-6 protein expression in mouse RAW264.7 cells at 0.5 to 4 uM preincubated for 1 hr followed by LPS-stimulation and measured after 16 hrs by immunoblot analysis; assay type: functional, cell-based
[17] = system: RAW264.7; test: Inhibition of LPS-induced TNFalpha protein expression in mouse RAW264.7 cells at 0.5 to 4 uM preincubated for 1 hr followed by LPS-stimulation and measured after 16 hrs by immunoblot analysis; assay type: functional, cell-based
[18] = system: RAW264.7; test: Inhibition of LPS-induced TNFalpha mRNA expression in mouse RAW264.7 cells at 0.5 to 4 uM preincubated for 1 hr followed by LPS-stimulation and measured after 6 hrs by qRT-PCR analysis; assay type: functional, cell-based
[19] = biological target: T1, Nuclear factor erythroid 2-related factor 2 (Homo sapiens); test: Activation of Nrf2 in human BEAS2B cells harboring Keap1-C151S mutant assessed as increase in Nrf2 protein expression at 2.5 uM after12 hrs in presence of Keap1-siRNA by immunoblot analysis; assay type: cell-based
[20] = system: BEAS-2B; test: Cytotoxicity against human BEAS2B cells assessed as decrease in cell viability at < 12.5 uM after 24 hrs by MTT assay; assay type: cell-based
[21] = biological target: T1, Nuclear factor erythroid 2-related factor 2 (Homo sapiens); test: Stabilization of Nrf2 in human BEAS2B cells harboring (HA)-ubiquitin assessed as suppression of Nrf2 ubiquitination at 1 uM after 8 hrs in presence of MG132 by immunoblot analysis; assay type: cell-based
[22] = biological target: T1, Nuclear factor erythroid 2-related factor 2 (Homo sapiens); test: Activation of Nrf2 in human MDA-MB-231 cells assessed as increase in Nrf2 protein level at 0.5 uM incubated for 16 hrs by immunoblot analysis; assay type: cell-based
[23] = biological target: T1, Nuclear factor erythroid 2-related factor 2 (Homo sapiens); test: Activation of Nrf2 in human BEAS2B cells at 0.25 to 2 uM incubated for 12 hrs by immunoblot analysis relative to SF; assay type: cell-based
[24] = system: Mus musculus; test: Antiinflammatory activity in C57BL/6 mouse model of CS-induced pulmonary injury assessed as increase in GCLM protein expression in lungs at 2 to 4 mg/kg, ip for 5 days by immunoblot analysis; assay type: functional, organism-based
[25] = system: RAW264.7; test: Inhibition of LPS-induced COX2 protein expression in mouse RAW264.7 cells at 0.5 to 4 uM preincubated for 1 hr followed by LPS-stimulation and measured after 16 hrs by immunoblot analysis; assay type: functional, cell-based

Structure (SMILES): CC1=C(C)C(=O)O[C@H]([C@](C)(O)[C@]2(O)CC[C@@]3(O)[C@@H]4C[C@H]5O[C@]56[C@@H](O)C=CC(=O)[C@]6(C)[C@H]4CC[C@]23C)C1
- Activity [1]: Active
- Activity [2]: Active
- Activity [3]: Active
- Activity [4]: Active
- Activity [5]: Active
- Activity [6]: Non-Toxic
- inhibition [7]: Active
- Activity [8]: Dose-dependent effect
- Activity [9]: Active
- Activity [10]: Active
- Activity [11]: Active
- inhibition [12]: Active
- inhibition [13]: Active
- Activity [14]: Active
- Activity [15]: Active
- inhibition [16]: Active
- inhibition [17]: Active
- inhibition [18]: Active
- Activity [19]: inactive
- Activity [20]: Non-Toxic
- Activity [21]: Active
- Activity [22]: Active
- fold change (FC) [23]: 2
- Activity [24]: Active
- inhibition [25]: Active
